Laboratory results published in patent US10793536B2, “Vortioxetine pamoic acid salt and crystal form thereof” (SHANGHAI SYNERGY PHARMACEUTICAL SCIENCES CO., LTD, priority 2016, dated 2020).
Read-outs that look alike come from different tables or passages of the source.

How the values were obtained:
[1] = Wistar rat, single intramuscular injection 45.6 mg/kg; for AUC(0-t), Mean / AUC(0-∞), Mean / Cmax, Mean / MRT(0-∞), Mean / Tmax, Mean / t1/2z, Mean: non-compartment model
Protocol: Weighing 75.1 mg of each of crystal forms A, B and D of vortioxetine semi pamoic acid, adding 1 mL diluent (water for Injection containing 1% CMC-Na and 5% mannitol) to each of them, and whirling for 2 min to obtain 3 suspensions (pH˜7) of 3 crystal forms with a concentration of 45.6 mg/mL.
Drugs are administered to 9 male clean Wistar rats (Shanghai Sippr BK Laboratory Animals Ltd) with a weight range of 183.0˜186.3 g in accordance with Table 4.
Collecting blood samples by jugular puncture, about 0.2 mL for each sample, resisting against blood coagulation using heparin sodium, placing the collected blood samples on ice, wherein the blood collecting time is as follows: 30 min, 1 hrs, 2 hrs, 4 hrs, 8 hrs, 24 hrs, 48 hrs, 72 hrs, 120 hrs, 168 hrs, 216 hrs, 264 hrs, 312 hrs, 360 hrs, 504 hrs, and 672 hrs […] after administration of drug; placing the collected blood samples on ice, and separating the blood plasma centrifugally (centrifugal condition: 8,000 revolutions/min, 6 minutes, 2-8° C.); storing the collected blood plasma at −70° C. before analysis.
Separately calculating the pharmacokinetic parameters AUC0-t, AUC0-∞, MRT0-∞, Cmax, Tmax, T1/2 etc. of the tested samples using a non-compartment model for pharmacokinetic calculation software WinNonlin5.2 according to the blood concentration data of the drug. For samples with a concentration lower than the quantitative lower limit, when the pharmacokinetic parameters are calculated, the samples sampled before reaching Cmax should be calculated at zero value; after reaching Cmax, the samples at the sample point should be calculated by “below the limit of quantitation” (BLQ).

[2] = single dose of vortioxetine injected to the body of the rat; FDA pharmacological summary document No. 204447Orig 1s000; cited from earlier work

Row | Structure (SMILES) | Concentration of vortioxetine in plasma, Mean ([1]; blood sampling time 0.5 h) [ng/mL] | Concentration of vortioxetine in plasma, Mean ([1]; blood sampling time 1 h) [ng/mL] | Concentration of vortioxetine in plasma, Mean ([1]; blood sampling time 2 h) [ng/mL] | Concentration of vortioxetine in plasma, Mean ([1]; blood sampling time 4 h) [ng/mL] | Concentration of vortioxetine in plasma, Mean ([1]; blood sampling time 8 h) [ng/mL] | Concentration of vortioxetine in plasma, Mean ([1]; blood sampling time 24 h) [ng/mL] | Concentration of vortioxetine in plasma, Mean ([1]; blood sampling time 48 h) [ng/mL] | Concentration of vortioxetine in plasma, Mean ([1]; blood sampling time 72 h) [ng/mL] | Concentration of vortioxetine in plasma, Mean ([1]; blood sampling time 120 h) [ng/mL] | Concentration of vortioxetine in plasma, Mean ([1]; blood sampling time 168 h) [ng/mL] | Concentration of vortioxetine in plasma, Mean ([1]; blood sampling time 216 h) [ng/mL] | Concentration of vortioxetine in plasma, Mean ([1]; blood sampling time 264 h) [ng/mL] | Concentration of vortioxetine in plasma, Mean ([1]; blood sampling time 312 h) [ng/mL] | Concentration of vortioxetine in plasma, Mean ([1]; blood sampling time 360 h) [ng/mL] | Concentration of vortioxetine in plasma, Mean ([1]; blood sampling time 504 h) [ng/mL] | Concentration of vortioxetine in plasma, Mean ([1]; blood sampling time 672 h) [ng/mL] | AUC(0-t), Mean [1] [ng·h/mL] | AUC(0-∞), Mean [1] [ng·h/mL] | Cmax, Mean [1] [ng/mL] | MRT(0-∞), Mean [1] [h] | further results
1 | Cc1ccc(Sc2ccccc2N2CCNCC2)c(C)c1.Cc1ccc(Sc2ccccc2N2CCNCC2)c(C)c1.O=C(O)c1cc2ccccc2c(Cc2c(O)c(C(=O)O)cc3ccccc23)c1O [Crystal form B of vortioxetine semi pamoic acid salt] [Crystal Form B Vortioxetine Semi Pamoic Acid Salt] | 2.14 | 4.56 | 10.17 | 18.05 | 21.12 | 17.67 | 14.56 | 15.65 | 32.47 | 40.21 | 24.00 | 15.19 | 10.55 | 6.02 | 2.62 | 2.06 | 8588.42 | 8939.49 | 40.21 | 226.30 | Tmax, Mean [1]: 168 h; t1/2z, Mean [1]: 116.6 h
2 | Cc1ccc(Sc2ccccc2N2CCNCC2)c(C)c1.Cc1ccc(Sc2ccccc2N2CCNCC2)c(C)c1.O=C(O)c1cc2ccccc2c(Cc2c(O)c(C(=O)O)cc3ccccc23)c1O [Crystal form D of vortioxetine semi pamoic acid salt] [Crystal Form D Vortioxetine Semi Pamoic Acid Salt] | 4.34 | 8.10 | 11.59 | 15.37 | 23.28 | 24.08 | 14.11 | 19.52 | 41.99 | 46.20 | 16.02 | 5.66 | 3.66 | 2.03 | 1.56 | 1.69 | 7856.57 | 8392.02 | 48.65 | 162.48 | Tmax, Mean [1]: 152.00 h; t1/2z, Mean [1]: 228.84 h
3 | Cc1ccc(Sc2ccccc2N2CCNCC2)c(C)c1 [vortioxetine, 1-[2-(2,4-dimethylphenylthiorueaalkyl)phenyl] piperazine] |  |  |  |  |  |  |  |  |  |  |  |  |  |  |  |  |  |  |  |  | half-life period t1/2 [2]: more than two hours
4 | Cc1ccc(Sc2ccccc2N2CCNCC2)c(C)c1.Cc1ccc(Sc2ccccc2N2CCNCC2)c(C)c1.O=C(O)c1cc2ccccc2c(Cc2c(O)c(C(=O)O)cc3ccccc23)c1O [Crystal form A of vortioxetine semi pamoic acid salt] [Crystal Form a Vortioxetine Semi Pamoic Acid Salt] | 3.12 | 5.80 | 8.41 | 10.75 | 16.22 | 15.77 | 8.70 | 11.68 | 35.38 | 31.34 | 13.35 | 6.29 | 4.07 | 2.26 | 1.73 | 1.88 | 6143.08 | 6503.21 | 38.18 | 227.18 | Tmax, Mean [1]: 136.00 h; t1/2z, Mean [1]: 126.06 h
